The source of these data is the NIST ThermoML archive (doi:10.1016/j.jct.2013.08.013).

± gives the expanded uncertainty stated by the source.

The conditions of this data set: 101 kPa, Liquid; for speed of sound: Frequency=2 MHz, Linear variable-path acoustic interferometer; for mass density: Vibrating tube method.

As usually defined, the speed of sound is the propagation velocity of pressure waves in the medium. The term mass density denotes the mass of a sample divided by its volume. As to `Cc1ccccc1Cl` [2-chlorotoluene], the speed of sound was 1299.8 ± 1.9 m/s (298.15 K), 1283.6 ± 1.9 m/s (303.15 K) and 1265.6 ± 1.9 m/s (308.15 K). For the same molecule, the mass density is, setting by setting: (298.15 K) 1077.38 ± 0.15 kg/m3; (303.15 K) 1072.8 ± 0.15 kg/m3; (308.15 K) 1068.21 ± 0.15 kg/m3.

For the molecule `CCCO` [propan-1-ol], the speed of sound by setting is: (298.15 K) 1206.5 ± 1.8 m/s; (303.15 K) 1188.6 ± 1.8 m/s; (308.15 K) 1171.8 ± 1.8 m/s. Besides, the mass density by setting is: (298.15 K) 799.65 ± 0.17 kg/m3; (303.15 K) 795.65 ± 0.17 kg/m3; (308.15 K) 791.65 ± 0.17 kg/m3.

Take `CCCCCCO` [hexan-1-ol]: the speed of sound by setting is: (298.15 K) 1303.2 ± 2.4 m/s; (303.15 K) 1286.4 ± 2.4 m/s; (308.15 K) 1269.7 ± 2.3 m/s. Further, the mass density is, setting by setting: (298.15 K) 815.31 ± 0.4 kg/m3; (303.15 K) 811.7 ± 0.4 kg/m3; (308.15 K) 808.06 ± 0.4 kg/m3.

In the case of `CCCCCO` [pentan-1-ol], the speed of sound by setting is: (298.15 K) 1276.2 ± 2.1 m/s; (303.15 K) 1259.5 ± 2 m/s; (308.15 K) 1248.1 ± 2 m/s. The mass density (298.15 K) turned out to be 810.82 ± 0.24 kg/m3, the mass density (303.15 K) was 807.1 ± 0.24 kg/m3 and the mass density (308.15 K) is 803.38 ± 0.24 kg/m3.
